This passage reports EC50, IC50 and AC50 results from ChEMBL document CHEMBL1201862, “PubChem BioAssay data set” (2004).

The source made the active and inactive calls.

In one test the test system is Streptococcus. Briefly: GAS UMAA2166 growth inhibition – luminescence, BacTiterGlo, counter-screen for streptokinase expression inhibitor project, dose response (AID 1915).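 Note: potency for reduction of bacterial viability or growth.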 Type of test: functional, organism-based. (The purpose of a counterscreen is to sort out artefacts and off-target activity.)
A short description of another test: cells. Type of test: functional.
Test [1] concerns Streptococcus sp. 'group A'. Briefly: Streptococcus pyogenes SK(-)GAS viability under kanamycin – luminescence, BacTiterGlo, confirmation, counter-screen for streptokinase expression inhibitor project, dose response (AID 1900). Type of test: functional, organism-based.
Test [2] concerns the target T1, Replicative DNA helicase DnaB (Mycobacterium tuberculosis, UniProt P9WMR3).
T1 sequence (P9WMR3 whole entry): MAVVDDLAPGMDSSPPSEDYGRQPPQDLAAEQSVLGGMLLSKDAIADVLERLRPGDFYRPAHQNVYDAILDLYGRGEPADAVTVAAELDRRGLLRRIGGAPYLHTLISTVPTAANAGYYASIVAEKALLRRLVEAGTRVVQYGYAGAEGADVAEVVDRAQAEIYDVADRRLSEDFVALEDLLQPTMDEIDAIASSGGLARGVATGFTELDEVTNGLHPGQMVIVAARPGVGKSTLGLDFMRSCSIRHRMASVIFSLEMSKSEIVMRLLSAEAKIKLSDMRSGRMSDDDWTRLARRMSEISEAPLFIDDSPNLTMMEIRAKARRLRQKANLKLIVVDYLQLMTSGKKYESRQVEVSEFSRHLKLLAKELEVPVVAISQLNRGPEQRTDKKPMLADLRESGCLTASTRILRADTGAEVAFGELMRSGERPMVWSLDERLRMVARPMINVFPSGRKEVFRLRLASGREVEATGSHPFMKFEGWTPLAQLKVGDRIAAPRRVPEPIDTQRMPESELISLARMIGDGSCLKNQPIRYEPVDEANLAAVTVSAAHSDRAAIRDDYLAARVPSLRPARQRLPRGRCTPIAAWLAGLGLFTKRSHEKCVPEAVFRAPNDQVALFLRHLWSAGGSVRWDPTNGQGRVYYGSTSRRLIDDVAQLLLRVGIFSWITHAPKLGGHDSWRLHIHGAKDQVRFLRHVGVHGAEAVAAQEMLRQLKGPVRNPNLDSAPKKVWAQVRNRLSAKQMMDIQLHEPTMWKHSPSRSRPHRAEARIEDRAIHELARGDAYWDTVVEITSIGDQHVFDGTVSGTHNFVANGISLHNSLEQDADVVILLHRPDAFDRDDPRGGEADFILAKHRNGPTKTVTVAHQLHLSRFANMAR
Nature of the test: DnaB intein splicing inhibitors, dose response, biochemical, cell-free fluorescence (AID 449749). Type of test: functional.

Another test deals with T2, Protein RecA (Mycobacterium tuberculosis, UniProt P9WHJ3).
T2 sequence (P9WHJ3 whole entry): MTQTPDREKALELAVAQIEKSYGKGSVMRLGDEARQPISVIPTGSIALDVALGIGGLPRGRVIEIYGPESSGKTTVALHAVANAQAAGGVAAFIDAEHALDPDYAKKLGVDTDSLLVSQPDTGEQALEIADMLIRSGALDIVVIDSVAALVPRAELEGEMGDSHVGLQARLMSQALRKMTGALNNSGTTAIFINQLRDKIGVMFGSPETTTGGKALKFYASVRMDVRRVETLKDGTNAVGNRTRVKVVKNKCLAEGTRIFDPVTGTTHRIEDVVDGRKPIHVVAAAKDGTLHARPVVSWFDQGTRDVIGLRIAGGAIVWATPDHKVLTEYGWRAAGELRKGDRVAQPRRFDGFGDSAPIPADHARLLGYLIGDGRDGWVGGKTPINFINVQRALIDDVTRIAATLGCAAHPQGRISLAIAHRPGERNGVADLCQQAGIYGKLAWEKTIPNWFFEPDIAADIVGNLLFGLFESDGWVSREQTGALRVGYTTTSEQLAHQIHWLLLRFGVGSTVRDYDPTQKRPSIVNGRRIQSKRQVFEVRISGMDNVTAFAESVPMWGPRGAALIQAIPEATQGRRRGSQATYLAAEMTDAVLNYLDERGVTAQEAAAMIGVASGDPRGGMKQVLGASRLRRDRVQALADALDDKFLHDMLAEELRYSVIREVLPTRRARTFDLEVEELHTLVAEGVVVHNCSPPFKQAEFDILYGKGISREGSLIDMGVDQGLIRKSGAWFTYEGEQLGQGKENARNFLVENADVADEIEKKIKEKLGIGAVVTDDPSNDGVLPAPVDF
Nature of the test: Fluorescence Cell-Free Homogeneous Dose Retest to Identify Inhibitors of RecA-Intein Splicing Activity. [Related pubchem assays (depositor defined):AID2097, AID2223, AID489010, AID492950]. Type of test: functional.

Test [3] addresses T3, Rac GTPase-activating protein 1 (Homo sapiens, UniProt Q9H0H5).
T3 sequence (Q9H0H5 whole entry): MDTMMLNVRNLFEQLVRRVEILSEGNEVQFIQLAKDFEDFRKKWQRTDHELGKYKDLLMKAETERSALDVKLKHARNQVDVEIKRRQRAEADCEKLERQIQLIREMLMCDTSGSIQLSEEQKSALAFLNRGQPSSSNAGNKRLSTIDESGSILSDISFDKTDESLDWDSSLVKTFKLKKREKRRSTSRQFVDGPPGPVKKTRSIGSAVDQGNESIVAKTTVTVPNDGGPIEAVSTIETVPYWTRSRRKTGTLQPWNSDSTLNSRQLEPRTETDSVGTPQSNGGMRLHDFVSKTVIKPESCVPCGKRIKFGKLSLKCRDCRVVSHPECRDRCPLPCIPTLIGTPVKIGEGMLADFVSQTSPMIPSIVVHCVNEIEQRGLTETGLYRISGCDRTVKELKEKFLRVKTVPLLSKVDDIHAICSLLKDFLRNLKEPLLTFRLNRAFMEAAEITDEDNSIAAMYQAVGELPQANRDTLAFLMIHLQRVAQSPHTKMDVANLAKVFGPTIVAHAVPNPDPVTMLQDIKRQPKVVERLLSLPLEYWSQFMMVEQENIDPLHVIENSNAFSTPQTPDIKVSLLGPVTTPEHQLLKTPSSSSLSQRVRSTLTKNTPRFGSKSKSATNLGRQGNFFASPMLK
Briefly: blockers of MgcRacGAP-driven Rac1 GTP hydrolysis – biochemical, ADP Hunter fluorescence, primary and confirmatory, confirmation (AID 624330). Type of test: functional.

The target of test [4] is T4, Heat shock factor protein 1 (Mus musculus, UniProt P38532).
T4 sequence (P38532 whole entry): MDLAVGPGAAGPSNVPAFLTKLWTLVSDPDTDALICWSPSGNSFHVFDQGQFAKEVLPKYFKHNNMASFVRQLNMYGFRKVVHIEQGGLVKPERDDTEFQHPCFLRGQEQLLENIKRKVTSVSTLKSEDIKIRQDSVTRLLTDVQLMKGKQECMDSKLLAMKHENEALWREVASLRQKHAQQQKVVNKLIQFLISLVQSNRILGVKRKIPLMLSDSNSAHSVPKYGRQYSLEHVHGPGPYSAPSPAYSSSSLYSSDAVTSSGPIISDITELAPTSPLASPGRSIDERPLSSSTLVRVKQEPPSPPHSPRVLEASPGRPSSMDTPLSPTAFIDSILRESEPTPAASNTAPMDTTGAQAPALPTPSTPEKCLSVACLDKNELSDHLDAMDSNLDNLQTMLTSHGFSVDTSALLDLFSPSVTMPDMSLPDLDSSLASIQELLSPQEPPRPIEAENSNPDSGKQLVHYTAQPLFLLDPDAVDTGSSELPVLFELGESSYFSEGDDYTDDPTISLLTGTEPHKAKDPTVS
Briefly: decrease of HSF1-responsive luciferase luminescence – cell-based, NIH3T3, dose retest, confirmation (AID 2382).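 Note: NIH3T3 fibroblasts with HSF1-driven luciferase reporter stressed by proteasome inhibitor MG132; luminescence from HSF1-driven luciferase expression after 8 hours of MG132 stress.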 Type of test: functional.

The target in another test is T5, Streptokinase A (Streptococcus pyogenes serotype M1, UniProt P10520).
T5 sequence (P10520 whole entry): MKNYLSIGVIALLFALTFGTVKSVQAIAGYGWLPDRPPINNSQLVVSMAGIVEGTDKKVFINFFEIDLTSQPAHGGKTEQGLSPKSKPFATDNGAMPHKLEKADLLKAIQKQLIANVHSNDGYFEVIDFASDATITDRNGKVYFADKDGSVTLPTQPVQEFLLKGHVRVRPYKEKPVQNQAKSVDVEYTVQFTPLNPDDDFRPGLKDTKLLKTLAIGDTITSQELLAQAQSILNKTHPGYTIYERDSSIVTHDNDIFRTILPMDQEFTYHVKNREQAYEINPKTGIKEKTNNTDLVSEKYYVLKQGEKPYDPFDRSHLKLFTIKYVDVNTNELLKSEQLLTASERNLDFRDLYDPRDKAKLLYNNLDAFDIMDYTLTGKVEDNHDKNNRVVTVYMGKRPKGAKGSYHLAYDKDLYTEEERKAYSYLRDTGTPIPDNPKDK
Briefly: viability-normalized secreted streptokinase activity reduction – plasminogen activation absorbance, OD405, dose response (AID 1914).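 Note: secreted streptokinase activity via plasminogen activation per viability signal from cell pellet.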 Type of test: functional, Streptococcus pyogenes M1 GAS.

As usually defined, the EC50 is the concentration needed to bring the measured effect to its halfway point. The IC50 is the concentration that gives 50% inhibition. Consider `Oc1cc(C(F)(F)F)nc2c(C(F)(F)F)cccc12`, for which the EC50 is 8.27 µM (active) in the test on Streptococcus and 2.62 µM (active) in test [1]. Moreover, the IC50 in “cells” was 50 µM (active). Broadly, the AC50 is the concentration at which the activity in the assay is half-maximal. As to `CC1=C(C)CC2(SC1)C(=O)N(c1ccccc1)N=C2N` (stereo not drawn), the AC50 in test [2] was 10.3 µM (active). For the same compound, the EC50 on Protein RecA is 3.4 µM (active).

Turning to `CCN1CCN(CC(O)COC(c2ccccc2)c2ccccc2C)CC1` (stereo not drawn), in test [3], the IC50 is 64.1 µM (active). For the compound `COc1ccccc1NC1=C(Cl)C(=O)N(C2CCCCC2)C1=O`, the EC50 in test [4] was > 195 µM (not active). `N#CC1=C(S)N(c2ccc(F)cc2)C(c2ccco2)NC1=O` (stereo not drawn): the IC50 in test [3] was 84.4 µM (active). Take `CC(C)Oc1ccc(/C=C(/NC(=O)c2ccccc2)C(=O)NCCC(=O)O)cc1`: the EC50 in test [4] is > 195 µM (not active).

On to `Cc1n[nH]c2c1C1(CCOCC1)C(C#N)=C(N)O2`, for which the AC50 in test [2] was 3.57 µM (active). Also, the EC50 at Protein RecA is 2.83 µM (active). For `CC(=O)Nc1ccc(N=Nc2ccc(O)cc2)cc1`, in test [3], the IC50 is 27.1 µM (active).

Turning to `O=C1C(Cl)=C(N2CCCCC2)C(=O)N1c1ccccc1Cl`, the half-maximal activity concentration (AC50) in test [2] was 4.64 µM (active). Also, the EC50 at Protein RecA is 2.45 µM (active). On to `O=C(NCc1cccs1)c1ccccc1[N+](=O)[O-]`, for which the EC50 in test [4] was > 195 µM (not active).

Turning to `CCS(=O)(=O)NC(C)C(c1cccs1)N1CCN(c2ccc(OC)cc2)CC1` (stereo not drawn), the IC50 in test [3] is 91.3 µM (active). On to `CCOC(=O)C(=O)NC12CC3CC(CC(C3)C1)C2`, for which, in “cells”, the IC50 is 44.5 µM (active). For `O=C(NC(=S)NCCC1=CCCCC1)c1cncc(Br)c1`, the half-maximal effective concentration (EC50) in test [4] is recorded as > 195 µM (not active). `O=C(OCc1cccc([N+](=O)[O-])c1)c1ccc2ccccc2n1`: in “cells”, the IC50 is 5.04 µM (active).

Regarding `CCCc1cc(=O)oc2cc(C)cc(OCC(=O)NCCCn3ccnc3)c12`, in test [4], the EC50 is > 195 µM (not active).

With `CCOC(=O)c1cc(NCc2cccs2)ccc1N1CCOCC1`, in test [3], the IC50 was 93 µM (active). On to `COc1ccc(CN2CCNC(=O)C2CC(=O)NC2CC(C)(C)CC(C)(C)C2)cc1OC` (stereo not drawn), for which, in test [4], the EC50 is reported as > 195 µM (not active). As for `CCOC(=O)c1cc(-c2csc(COc3ccccc3Cl)n2)on1`, in the test “cells”, the IC50 is 0.4 µM (active).

Regarding `Cc1ccccc1C(=O)Nc1nnc(-c2ccco2)o1`, the IC50 in the test “cells” was 5.71 µM (active).

For `CCN(CC)c1ccc(NC(=O)C2CCCC2)cc1`, in test [3], the IC50 is 63.5 µM (active). On to `O=[N+]([O-])c1ccc(CN2CCN(c3ccccc3Cl)CC2)o1`, for which the IC50 in “cells” is 0.84 µM (active).

Consider `O=[N+]([O-])c1ccc(SCCc2ccncc2)cc1`, for which, in test [4], the EC50 is > 195 µM (not active). In the case of `Cc1ccc(C(=O)N/C(=C/c2ccco2)C(=O)Nc2cccc(C(=O)O)c2)cc1`, in test [4], the EC50 is on record as > 195 µM (not active). On to `O=S(=O)(N[C@H]1C[C@@H](NS(=O)(=O)OCC(Cl)(Cl)Cl)C2CCCCC21)OCC(Cl)(Cl)Cl` (stereo partly drawn), for which the AC50 in test [2] is 3.31 µM (active). For the same compound, the EC50 with Streptococcus is 5.38 µM (active); at Protein RecA, 50.9 µM (active); at Streptokinase A, 1.7 µM (active); in test [1] it was 2.45 µM (active). As for `Cc1ccccc1-c1nc(CN(C)C(C)c2ccon2)c(C)o1` (stereo not drawn), in test [2], the AC50 is 3.11 µM (active). The EC50 on Protein RecA is 1.15 µM (active). `O=C(O)c1ccc([N+](=O)[O-])c2c1C(=O)c1ccccc1C2=O`: in test [2], the concentration at half-maximal activity (AC50) was 29 µM (active). For the same compound, the EC50 on Protein RecA was 6.78 µM (active).

Regarding `COc1cc(/C=N/NC(=O)CNC(=O)c2cccs2)ccc1O`, in test [3], the IC50 was 42.2 µM (active). For `O=C(Cc1cc(O)n[nH]1)N/N=C/c1cccc2ccccc12`, the AC50 in test [2] was 4.55 µM (active). Also, the EC50 at Protein RecA was 0.694 µM (active). For the compound `COc1ccc(OC)c(CN2CCN(Cc3ccc(OC)c(OC)c3OC)CC2)c1`, the IC50 in test [3] was 77.7 µM (active). Same read-out and setting: next, `CCOc1cc(/C=N/NC(=O)c2ccc(NC(=O)C3CC3)cc2)ccc1O`: 72.4 µM (active).

With `C/C(=N/NC(=O)c1ccncc1)C1=C(O)CC(C)(C)CC1=O`, in “cells”, the IC50 was 5.71 µM (active).
